This note sets out measurements from patent US9365583B2, “Substituted pyrazoles and uses thereof” (Genentech, Inc., priority 2013, dated 2016).

Usually Ki stands for the dissociation constant of the complex between target and ligand, obtained from inhibition or displacement. High values mean a looser hold on the target, low ones a stronger hold on the target.

The target in this assay is T1, N-terminally GST-tagged DLK (catalytic domain amino acid 1-520) (Homo sapiens, UniProt Q12852).
T1 construct: N-terminally GST-tagged DLK (catalytic domain amino acid 1-520); purchased Carna Bioscience
T1 sequence (Q12852 1-520): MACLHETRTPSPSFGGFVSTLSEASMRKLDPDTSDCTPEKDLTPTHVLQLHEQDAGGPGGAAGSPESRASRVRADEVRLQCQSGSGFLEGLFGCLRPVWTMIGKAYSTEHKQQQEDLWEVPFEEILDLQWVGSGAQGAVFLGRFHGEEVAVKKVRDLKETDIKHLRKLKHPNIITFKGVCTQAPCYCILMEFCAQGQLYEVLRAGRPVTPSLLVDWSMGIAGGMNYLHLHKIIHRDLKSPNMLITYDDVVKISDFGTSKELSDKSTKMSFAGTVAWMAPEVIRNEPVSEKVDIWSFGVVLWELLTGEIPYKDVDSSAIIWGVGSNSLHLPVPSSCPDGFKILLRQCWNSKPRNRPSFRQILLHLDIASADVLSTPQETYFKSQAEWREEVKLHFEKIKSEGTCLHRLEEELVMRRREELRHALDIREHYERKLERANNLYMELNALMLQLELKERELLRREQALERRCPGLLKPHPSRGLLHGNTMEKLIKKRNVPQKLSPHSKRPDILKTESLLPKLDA
Kind of assay: DLK TR-FRET inhibition assay. The class given is biochemical. As to conditions: 5 nM GST-DLK, 40 nM HIS-MKK4 K131M substrate, 30 μM ATP, 60 minutes at ambient temperature. In short, it runs like this: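 5 nM GST-DLK (aa 1-520), 40 nM HIS-MKK4 K131M and 30 μM ATP reacted 60 min at ambient temperature in HEPES pH 7.5 buffer with 10 mM MgCl2, compound 1:3 serially diluted from 20 uM. TR-FRET detection of phospho-MKK4 used Eu-cryptate anti-phospho-MKK4 plus D2 anti-HIS, read after 3 h (665/615 nm).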
In general terms: TR-FRET usually uses a lanthanide donor and a delayed reading to cut background.
Consider “5-(1-isopropyl-5-((1R,3s,5S,6R)- 3-((R)-2-methylmorpholino) bicyclo[3.1.0]hexan-6-yl)-1H- pyrazol-3-yl)-3-(trifluoromethyl) pyridin-2-amine [compound 1]”, for which the Ki stood at 2.28 nM. The value for `CCN1CCN([C@@H]2C[C@@H]3[C@H](C2)[C@H]3c2cc(-c3cnc(N)c(OC(F)(F)F)c3)nn2C(C)C)CC1` [compound 15, 5-(5-((1R,3s,5S,6r)-3-(4-ethylpiperazin-1-yl)bicyclo[3.1.0]hexan-6-yl)-1-isopropyl-1H-pyrazol-3-yl)-3-(trifluoromethoxy) pyridin-2-amine] was 3.58 nM; that for `CC(C)n1nc(-c2cnc(N)c(OC(F)F)c2)cc1[C@H]1[C@@H]2C[C@H](N3C4COCC3C4)C[C@@H]21` [compound 153, 5-(5-((1R,3r,5S,6r)-3-(3-oxa-6-azabicyclo[3.1.1]heptan-6-yl)bicyclo[3.1.0]hexan-6-yl)-1-isopropyl-1H-pyrazol-3-yl)-3-(difluoro-methoxy)pyridin-2-amine] was 0.9 nM. For the molecule `CC(C)n1nc(-c2cnc(N)c(C(F)(F)F)c2)cc1[C@H]1[C@@H]2C[C@H](N3CCOCC3)C[C@@H]21` [compound 52, 5-(1-isopropyl-5-((1R,3r,5S,6r)-3-morpholinobicyclo[3.1.0]hexan-6-yl)-1H-pyrazol-3-yl)-3-(trifluoromethyl)pyridin-2-amine], the affinity, expressed as Ki, was 3.97 nM. The value for `CC(C)n1nc(-c2cnc(N)c(CC(F)(F)F)c2)cc1[C@H]1[C@@H]2C[C@@H](N3CCOCC3)C[C@@H]21` [compound 281, 5-(1-isopropyl-5-((1R,3s,5S,6r)-3-morpholinobicyclo[3.1.0]hexan-6-yl)-1H-pyrazol-3-yl)-3-(2,2,2-trifluoroethyl)pyridin-2-amine] was 18.4 nM; that for `Nc1ncc(-c2cc([C@H]3[C@@H]4C[C@@H](N5CCOCC5)C[C@@H]43)n(CC(F)F)n2)cc1OC(F)F` [compound 160, 5-(1-(2,2-difluoroethyl)-5-((1R,3s,5S,6r)-3-morpholinobicyclo [3.1.0]hexan-6-yl)-1H-pyrazol-3-yl)-3-(difluoromethoxy) pyridin-2-amine] was 2.4 nM. The same measure for `CC(C)n1nc(-c2cnc(N)c(C(F)(F)F)c2)cc1[C@H]1[C@@H]2C[C@@H](N3CCCC3=O)C[C@@H]21` [compound 44, 1-((1R,3s,5S,6r)-6-(3-(6-amino-5-(trifluoromethyl)pyridin-3-yl)-1-isopropyl-1H-pyrazol-5-yl)bicyclo[3.1.0]hexan-3-yl)pyrrolidin-2-one]: 8.2 nM; for `CC(C)n1nc(-c2cnc(N)c(C(F)(F)F)c2)cc1[C@H]1[C@@H]2C[C@H](N3CCOC[C@@H]3C)C[C@@H]21` [compound 98, 5-(1-isopropyl-5-((1R,3r,5S,6S)-3-((S)-3-methylmorpholino)bicyclo[3.1.0]hexan-6-yl)-1H-pyrazol-3-yl)-3-(trifluoromethyl) pyridin-2-amine]: 4.89 nM. Molecule `Nc1ncc(-c2cc([C@H]3[C@@H]4C[C@H](N5CCOCC5)C[C@@H]43)n(CC3CCC3)n2)cc1OC(F)F` [compound 127, 5-(1-(cyclobutylmethyl)-5-((1R, 3r,5S,6r)-3-morpholinobicyclo [3.1.0]hexan-6-yl)-1H-pyrazol-3-yl)-3-(difluoromethoxy)pyridin-2-amine] returned a Ki of 3.55 nM. In turn, `CC(C)n1nc(-c2cnc(N)c(C(F)(F)F)c2)cc1[C@H]1[C@@H]2C[C@@H](O)C[C@@H]21` [compound 5, (1R,3s,5S,6r)-6-(3-(6-amino-5-(trifluoromethyl)pyridin-3-yl)-1-isopropyl-1H-pyrazol-5-yl) bicyclo[3.1.0]hexan-3-ol] gave a Ki of 18.8 nM. On to `Nc1ncc(-c2cc([C@H]3[C@@H]4C[C@H](N5CCOCC5)C[C@@H]43)nn2CC2CC2)cc1OC(F)F` [compound 267, 5-(1-(cyclopropylmethyl)-3-((1R,3r,5S,6r)-3-morpholinobicyclo [3.1.0]hexan-6-yl)-1H-pyrazol-5-yl)-3-(difluoromethoxy) pyridin-2-amine], for which the Ki was determined as 220 nM. The molecule `Nc1ncc(-c2cc([C@H]3[C@@H]4C[C@H](N5CCOCC5)C[C@@H]43)n(C3CCCC3)n2)cc1OC(F)F` [compound 129, 5-(1-cyclopentyl-5-((1R,3r,5S,6r)-3-morpholinobicyclo[3.1.0]hexan-6-yl)-1H-pyrazol-3-yl)-3-(difluoromethoxy)pyridin-2-amine] gave a Ki of 4.52 nM. Molecule `CC(C)n1nc(-c2cnc(N)c(C(F)(F)F)c2)cc1[C@H]1[C@@H]2C[C@@H](n3ccnc3)C[C@@H]21` [compound 114, 5-(5-((1R,3s,5S,6r)-3-(1H-imidazol-1-yl)bicyclo[3.1.0]hexan-6-yl)-1-isopropyl-1H-pyrazol-3-yl)-3-(trifluoromethyl)pyridin-2-amine] yielded a Ki of 15.1 nM.

The molecule `CC(C)n1nc(-c2cnc(N)c(OC(F)(F)F)c2)cc1[C@H]1[C@@H]2C[C@@H](N3CCOCC3)C[C@@H]21` [compound 68, 5-(1-isopropyl-5-((1R,3s,5S,6r)-3-morpholinobicyclo[3.1.0]hexan-6-yl)-1H-pyrazol-3-yl)-3-(trifluoromethoxy)pyridin-2-amine] had a Ki of 1.2 nM. Molecule `CC(C)n1nc(-c2cnc(N)c(OC(F)F)c2)cc1[C@H]1[C@@H]2C[C@@H](NCC(F)(F)F)C[C@@H]21` [compound 121, 3-(difluoromethoxy)-5-(1-isopropyl-5-((1R,3s,5S,6r)-3-((2,2,2-trifluoroethyl)amino)bicyclo [3.1.0]hexan-6-yl)-1H-pyrazol-3-yl) pyridin-2-amine] showed a Ki of 6.68 nM.

Consider `CC(C)n1nc(-c2cnc(N)c(C(F)(F)F)c2)cc1[C@H]1[C@@H]2C[C@@H](N3CCS(=O)(=O)CC3)C[C@@H]21` [compound 9, 4-((1R,3s,5S,6r)-6-(3-(6-amino-5-(trifluoromethyl)pyridin-3-yl)-1-isopropyl-1H-pyrazol-5-yl)bicyclo[3.1.0]hexan-3-yl)thio-morpholine 1,1-dioxide], for which the Ki came to 4 nM. For `CC(C)n1nc(-c2cnc(N)c(C(F)(F)F)c2)cc1[C@H]1[C@@H]2C[C@H](N3C[C@H]4C[C@@H]3CO4)C[C@@H]21` [compound 55, 5-(5-((1R,3r,5S,6R)-3-((1R,4R)-2-oxa-5-azabicyclo[2.2.1]heptan-5-yl)bicyclo[3.1.0]hexan-6-yl)-1-isopropyl-1H-pyrazol-3-yl)-3-(trifluoromethyl)pyridin-2-amine], the Ki is 5.4 nM.
